Source: patent US11446298B2, “Pyrimidine derivatives” (Idorsia Pharmaceuticals Ltd, priority 2017, dated 2022)

How the values were obtained:
Type in all cases: cell-based
EP4 = target: T1, EP4 (Homo sapiens, UniProt P35408); assay: hEP4 cAMP Assay (BT549 breast cancer cells, HTRF cAMP, PGE2 6 nM); conditions: antagonistic activity, PGE2 6 nM (EC80)
T1 construct: BT549 breast cancer cells, express high endogenous EP4 levels and very low EP2 levels; host or cells: BT549 breast cancer cells
Method in brief: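 Antagonism is measured as inhibition of PGE2 (6 nM final, EC80) cAMP accumulation in EP4-expressing BT549 breast cancer cells, after a 45 min room-temperature compound pre-incubation and 30 min agonist step, with 2 mM IBMX present. HTRF ratio gives cAMP relative to DMSO; IC50 fitted, means over repeat runs.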

PTGER2 (EP2) = target: T2, PTGER2 (EP2) (Homo sapiens, UniProt P43116); assay: hEP2 b-Arrestin Assay (PathHunter HEK 293 PTGER2 b-arrestin cells, PGE2 5 μM); conditions: antagonistic activity, beta-arrestin assay, HEK 293 PTGER2 cells, PGE2 5 μM (EC80); read-out: hEP2 b-arr IC50
T2 construct: host or cells: HEK 293 (PathHunter, stably transfected)
Method in brief: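 PathHunter enzyme-fragment complementation in HEK 293 cells: compounds (10 μM-2 nM or 1 μM-0.2 nM) pre-incubated 15 min at 37 °C, then 5 μM PGE2 (EC80) for 120 min at 37 °C. Chemiluminescence read after 1 h detection; IC50 from duplicate dose-response fits, means of repeats.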

EP2 = target: T3, EP2 (Homo sapiens, UniProt P43116); assay: hEP2 cAMP Assay (SF295 glioblastoma cells, HTRF cAMP, PGE2 75 nM); conditions: antagonistic activity, PGE2 75 nM (EC80)
T3 construct: SF295 glioblastoma cells express high endogenous EP2 and no EP4; host or cells: SF295 glioblastoma cells
Method in brief: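 IC50 values derive from duplicate-point curves of percent cAMP relative to DMSO, read by HTRF (665/620 nm) against a cAMP calibrator. Compounds (30 μM to 0.01 nM ranges) were given 45 min at room temperature before 30 min with 75 nM PGE2, in EP2-only SF295 cells with 2 mM IBMX.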

PTGER4 (EP4) = target: T4, PTGER4 (EP4) (Homo sapiens, UniProt P35408); assay: hEP4 b-Arrestin Assay (PathHunter HEK 293 PTGER4 b-arrestin cells, PGE2 20 nM); conditions: antagonistic activity, beta-arrestin assay, HEK 293 PTGER4 cells, PGE2 20 nM (EC80); read-out: hEP4 b-arr IC50
T4 construct: host or cells: HEK 293 (PathHunter, stably transfected)
Method in brief: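 PathHunter HEK 293 EP4 b-arrestin enzyme-complementation cells preincubated 15 min at 37° C with compound (10 μM-2 nM or 1 μM-0.2 nM), then stimulated 120 min with 20 nM PGE2 (EC80). Chemiluminescence read; IC50 from duplicate % activity vs DMSO, one-site fit, averaged over repeats.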

T3 sequence (P43116 whole entry): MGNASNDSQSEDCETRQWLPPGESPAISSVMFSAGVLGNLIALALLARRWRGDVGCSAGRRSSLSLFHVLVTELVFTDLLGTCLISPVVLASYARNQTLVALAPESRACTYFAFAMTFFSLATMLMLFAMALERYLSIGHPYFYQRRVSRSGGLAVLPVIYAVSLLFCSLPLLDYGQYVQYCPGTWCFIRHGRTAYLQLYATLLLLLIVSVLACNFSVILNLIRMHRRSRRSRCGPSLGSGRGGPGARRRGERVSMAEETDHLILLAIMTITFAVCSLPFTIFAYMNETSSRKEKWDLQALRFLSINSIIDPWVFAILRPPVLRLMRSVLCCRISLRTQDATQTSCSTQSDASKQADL
T2 sequence (P43116 whole entry): as above
T4 sequence (P35408 whole entry): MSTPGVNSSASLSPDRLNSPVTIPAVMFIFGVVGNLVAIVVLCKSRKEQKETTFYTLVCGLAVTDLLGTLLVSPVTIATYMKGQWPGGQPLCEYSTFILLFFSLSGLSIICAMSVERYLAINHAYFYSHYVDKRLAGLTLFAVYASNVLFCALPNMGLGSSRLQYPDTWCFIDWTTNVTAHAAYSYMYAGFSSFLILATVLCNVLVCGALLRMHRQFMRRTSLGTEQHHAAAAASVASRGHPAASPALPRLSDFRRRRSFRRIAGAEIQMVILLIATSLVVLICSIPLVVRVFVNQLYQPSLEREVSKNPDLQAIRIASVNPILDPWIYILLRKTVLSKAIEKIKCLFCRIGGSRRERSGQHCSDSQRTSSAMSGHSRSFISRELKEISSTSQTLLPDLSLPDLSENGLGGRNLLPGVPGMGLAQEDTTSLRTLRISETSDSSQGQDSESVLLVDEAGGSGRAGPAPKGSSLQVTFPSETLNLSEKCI
T1 sequence (P35408 whole entry): as above

IC50 (EP4) [nM]	IC50 (PTGER2 (EP2)) [nM]	IC50 (EP2) [nM]	IC50 (PTGER4 (EP4)) [nM]	Structure (SMILES)
228	414	214	478	COc1ccc2ccc(F)c(CCNc3cc(-c4cc(C(F)(F)F)c(C(=O)O)s4)ncn3)c2n1 [Example 151, 5-{6-[2-(7-Fluoro-2-methoxy-quinolin-8-yl)-ethylamino]-pyrimidin-4-yl}-3-trifluoromethyl-thiophene-2-carboxylic acid]
28	186	526	48	CCOc1cc(-c2cc(NCCc3cccc4ccncc34)ncn2)sc1-c1noc(=O)[nH]1 [Example 139, 3-{3-Ethoxy-5-[6-(2-isoquinolin-8-yl-ethylamino)-pyrimidin-4-yl]-thiophen-2-yl}-[1,2,4]oxadiazol-5(4H)-one]
22	7	3	24	CCOc1cc(-c2cc(NCCc3c(C#N)ccc4ccccc34)ncn2)sc1C(=O)O [Example 68, 5-{6-[2-(2-Cyano-naphthalen-1-yl)-ethylamino]-pyrimidin-4-yl}-3-ethoxy-thiophene-2-carboxylic acid]
92	115	76	113	CCOc1cc(-c2cc(NCCc3cccc4ccoc34)ncn2)sc1C(=O)O [Example 35, 5-[6-(2-Benzofuran-7-yl-ethylamino)-pyrimidin-4-yl]-3-ethoxy-thiophene-2-carboxylic acid]
8	3	6	4	CCOc1cc(-c2cc(NCCc3c(OC)ccc4ccccc34)ncn2)sc1-c1noc(=O)[nH]1 [Example 138, 3-(3-Ethoxy-5-{6-[2-(2-methoxy-naphthalen-1-yl)-ethylamino]-pyrimidin-4-yl}-thiophen-2-yl)-[1,2,4]oxadiazol-5(4H)-one]
268	143	176	290	CCOc1cc(-c2cc(NCCc3ccc(C)c4ccccc34)ncn2)ccc1C(=O)O [Example 16, 2-Ethoxy-4-{6-[2-(4-methyl-naphthalen-1-yl)-ethylamino]-pyrimidin-4-yl}-benzoic acid]
171	27	25	192	CCOc1cc(-c2cc(NCCc3c(Cl)ccc4cccnc34)ncn2)sc1C(=O)O [Example 15, 5-{6-[2-(7-Chloro-quinolin-8-yl)-ethylamino]-pyrimidin-4-yl}-3-ethoxy-thiophene-2-carboxylic acid]
6	50	50	8	CCOc1cc(-c2cc(NCCc3ccc(C(F)F)c4ccccc34)ncn2)sc1C(=O)O [Example 72, 5-{6-[2-(4-Difluoromethyl-naphthalen-1-yl)-ethylamino]-pyrimidin-4-yl}-3-ethoxy-thiophene-2-carboxylic acid]
17	27	17	52	CCOc1cc(-c2cc(NCCc3c(C)c(C)cc4ccccc34)ncn2)sc1C(=O)O [Example 12, 5-{6-[2-(2,3-Dimethyl-naphthalen-1-yl)-ethylamino]-pyrimidin-4-yl}-3-ethoxy-thiophene-2-carboxylic acid]
223	56	78	252	CCOc1cc(-c2cc(NCCc3c(OC)ccc4cccnc34)ncn2)sc1C(=O)O [Example 33, 3-Ethoxy-5-{6-[2-(7-methoxy-quinolin-8-yl)-ethylamino]-pyrimidin-4-yl}-thiophene-2-carboxylic acid]
244	110	85	311	CCOc1cc(-c2cc(NCCc3cccc4cc[nH]c34)ncn2)sc1C(=O)O [Example 46, 3-Ethoxy-5-{6-[2-(1H-indol-7-yl)-ethylamino]-pyrimidin-4-yl}-thiophene-2-carboxylic acid]
